According to the kinase profiling compilation of Christmann-Franck et al. (2016):

Tests used:
Assay in all cases: radiometric filter-binding kinase assay, Kinase HotSpot
Details in all cases: compound 0.5 µM; ATP 10 µM
WNK2 (human) = WNK2 (human) (UniProt Q9Y3S1)
TGFBR1 (human) = TGFBR1 (human) (UniProt P36897)
SRPK2 (human) = SRPK2 (human) (UniProt P78362)
GRK5 (human) = GRK5 (human) (UniProt P34947)
PKN1 (human) = PKN1 (human) (UniProt Q16512)
SGK2 (human) = SGK2 (human) (UniProt Q9HBY8)
MAPK12 (human) = MAPK12 (human) (UniProt P53778)
Chain of MAPK12 (human) (P53778 whole entry, looked up): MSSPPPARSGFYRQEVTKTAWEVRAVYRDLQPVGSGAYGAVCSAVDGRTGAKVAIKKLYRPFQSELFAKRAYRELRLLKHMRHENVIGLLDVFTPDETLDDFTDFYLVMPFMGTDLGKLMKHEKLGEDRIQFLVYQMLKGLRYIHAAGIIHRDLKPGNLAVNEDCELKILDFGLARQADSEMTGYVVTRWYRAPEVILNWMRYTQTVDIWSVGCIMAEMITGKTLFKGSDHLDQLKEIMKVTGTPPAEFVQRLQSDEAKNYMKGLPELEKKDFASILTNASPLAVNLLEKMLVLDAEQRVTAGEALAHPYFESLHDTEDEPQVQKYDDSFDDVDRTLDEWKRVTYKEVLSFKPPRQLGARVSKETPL

NEK11 (human) = NEK11 (human) (UniProt Q8NG66)
MELK (human) = MELK (human) (UniProt Q14680)
CSNK2A1 (human) = CSNK2A1 (human) (UniProt P68400)
NLK (human) = NLK (human) (UniProt Q9UBE8)
DYRK2 (human) = DYRK2 (human) (UniProt Q92630)
TYRO3 (human) = TYRO3 (human) (UniProt Q06418)
MAPK8 (human) = MAPK8 (human) (UniProt P45983)
PRKCB2 (human) = PRKCB2 (human) (UniProt P05771)
FGFR2 (human) = FGFR2 (human) (UniProt P21802)
MAP3K9 (human) = MAP3K9 (human) (UniProt P80192)
WEE1 (human) = WEE1 (human) (UniProt P30291)
MAPK14 (human) = MAPK14 (human) (UniProt Q16539)
CAMK1D (human) = CAMK1D (human) (UniProt Q8IU85)
Chain of CAMK1D (human) (Q8IU85 whole entry, looked up): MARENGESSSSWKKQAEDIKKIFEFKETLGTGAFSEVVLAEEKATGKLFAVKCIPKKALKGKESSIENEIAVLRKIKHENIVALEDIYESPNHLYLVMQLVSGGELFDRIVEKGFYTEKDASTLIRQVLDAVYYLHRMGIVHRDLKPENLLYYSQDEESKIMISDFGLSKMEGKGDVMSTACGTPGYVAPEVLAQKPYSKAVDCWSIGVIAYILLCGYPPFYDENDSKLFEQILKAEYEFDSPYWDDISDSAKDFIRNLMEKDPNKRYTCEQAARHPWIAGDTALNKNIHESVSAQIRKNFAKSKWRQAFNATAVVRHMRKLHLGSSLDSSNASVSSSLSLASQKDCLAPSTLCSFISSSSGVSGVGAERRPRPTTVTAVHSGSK

LTK (human) = LTK (human) (UniProt P29376)
Chain of LTK (human) (P29376 whole entry, looked up): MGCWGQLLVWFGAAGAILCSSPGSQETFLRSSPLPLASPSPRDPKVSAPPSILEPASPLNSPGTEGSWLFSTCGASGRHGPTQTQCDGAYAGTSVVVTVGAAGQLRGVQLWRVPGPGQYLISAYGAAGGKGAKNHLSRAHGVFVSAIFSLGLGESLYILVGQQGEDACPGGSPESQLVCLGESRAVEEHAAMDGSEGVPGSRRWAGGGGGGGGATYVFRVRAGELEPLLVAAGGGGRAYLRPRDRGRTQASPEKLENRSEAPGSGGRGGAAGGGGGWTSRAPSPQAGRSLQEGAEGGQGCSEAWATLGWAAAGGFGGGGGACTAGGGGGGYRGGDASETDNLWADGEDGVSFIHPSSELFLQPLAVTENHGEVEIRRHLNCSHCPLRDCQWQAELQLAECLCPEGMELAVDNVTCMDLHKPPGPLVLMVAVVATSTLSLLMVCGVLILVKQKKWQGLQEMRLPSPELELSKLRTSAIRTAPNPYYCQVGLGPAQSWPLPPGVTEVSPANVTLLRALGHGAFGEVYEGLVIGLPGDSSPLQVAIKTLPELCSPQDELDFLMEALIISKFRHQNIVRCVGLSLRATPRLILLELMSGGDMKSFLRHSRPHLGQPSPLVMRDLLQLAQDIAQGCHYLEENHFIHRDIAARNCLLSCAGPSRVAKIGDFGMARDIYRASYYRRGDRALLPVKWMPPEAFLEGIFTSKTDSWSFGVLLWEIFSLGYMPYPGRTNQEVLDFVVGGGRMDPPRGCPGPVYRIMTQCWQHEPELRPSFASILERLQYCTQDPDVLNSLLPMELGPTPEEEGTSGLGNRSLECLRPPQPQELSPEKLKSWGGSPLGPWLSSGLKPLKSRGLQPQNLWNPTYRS

SIK2 (human) = SIK2 (human) (UniProt Q9H0K1)
PRKCZ (human) = PRKCZ (human) (UniProt Q05513)
PAK4 (human) = PAK4 (human) (UniProt O96013)
CAMKK1 (human) = CAMKK1 (human) (UniProt Q8N5S9)
TAOK3 (human) = TAOK3 (human) (UniProt Q9H2K8)
PDPK1 (human) = PDPK1 (human) (UniProt O15530)
LRRK2 (human) = LRRK2 (human) (UniProt Q5S007)
CAMK4 (human) = CAMK4 (human) (UniProt Q16566)
YES1 (human) = YES1 (human) (UniProt P07947)
CDK4 CCND1 (human) = CDK4 CCND1 (human) (UniProt P24385+P11802)
TEK (human) = TEK (human) (UniProt Q02763)
Chain of TEK (human) (Q02763 whole entry, looked up): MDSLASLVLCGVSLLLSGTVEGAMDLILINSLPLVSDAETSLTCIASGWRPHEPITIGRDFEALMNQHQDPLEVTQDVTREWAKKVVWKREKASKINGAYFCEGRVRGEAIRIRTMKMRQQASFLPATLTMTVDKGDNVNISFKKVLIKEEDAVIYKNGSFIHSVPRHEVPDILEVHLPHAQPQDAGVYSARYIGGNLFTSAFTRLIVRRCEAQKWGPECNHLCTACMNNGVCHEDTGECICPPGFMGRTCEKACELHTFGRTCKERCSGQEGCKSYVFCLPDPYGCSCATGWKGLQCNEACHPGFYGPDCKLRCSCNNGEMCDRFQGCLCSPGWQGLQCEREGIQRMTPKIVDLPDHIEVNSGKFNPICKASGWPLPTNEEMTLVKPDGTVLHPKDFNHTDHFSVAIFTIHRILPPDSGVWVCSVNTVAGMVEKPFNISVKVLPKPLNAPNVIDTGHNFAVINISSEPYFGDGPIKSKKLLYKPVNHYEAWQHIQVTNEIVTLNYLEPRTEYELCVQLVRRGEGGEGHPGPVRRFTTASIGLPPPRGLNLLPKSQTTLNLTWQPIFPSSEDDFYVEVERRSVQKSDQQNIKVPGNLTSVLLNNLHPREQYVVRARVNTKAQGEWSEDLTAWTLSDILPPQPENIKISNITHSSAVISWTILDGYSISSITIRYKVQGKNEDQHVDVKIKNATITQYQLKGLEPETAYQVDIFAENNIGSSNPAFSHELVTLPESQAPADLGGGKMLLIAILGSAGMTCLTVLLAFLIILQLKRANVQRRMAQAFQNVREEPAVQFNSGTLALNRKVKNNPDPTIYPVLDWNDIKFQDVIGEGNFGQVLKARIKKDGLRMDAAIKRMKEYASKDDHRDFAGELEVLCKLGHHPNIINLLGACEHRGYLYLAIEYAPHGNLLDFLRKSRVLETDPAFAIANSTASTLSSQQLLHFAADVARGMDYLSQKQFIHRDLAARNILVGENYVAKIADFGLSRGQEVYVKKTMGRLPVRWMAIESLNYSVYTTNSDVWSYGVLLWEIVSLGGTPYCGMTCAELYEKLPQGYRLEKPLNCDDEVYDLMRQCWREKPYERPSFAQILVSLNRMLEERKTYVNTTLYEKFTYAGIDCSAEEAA

RPS6KB2 (human) = RPS6KB2 (human) (UniProt Q9UBS0)
HCK (human) = HCK (human) (UniProt P08631)
TSSK1B (human) = TSSK1B (human) (UniProt Q9BXA7)
NEK2 (human) = NEK2 (human) (UniProt P51955)
SRMS (human) = SRMS (human) (UniProt Q9H3Y6)
RPS6KA1 KD1 KD2 (human) = RPS6KA1 KD1 KD2 (human) (UniProt Q15418)
MAPK10 (human) = MAPK10 (human) (UniProt P53779)
CSNK1G2 (human) = CSNK1G2 (human) (UniProt P78368)
PTK2 (human) = PTK2 (human) (UniProt Q05397)
Chain of PTK2 (human) (Q05397 whole entry, looked up): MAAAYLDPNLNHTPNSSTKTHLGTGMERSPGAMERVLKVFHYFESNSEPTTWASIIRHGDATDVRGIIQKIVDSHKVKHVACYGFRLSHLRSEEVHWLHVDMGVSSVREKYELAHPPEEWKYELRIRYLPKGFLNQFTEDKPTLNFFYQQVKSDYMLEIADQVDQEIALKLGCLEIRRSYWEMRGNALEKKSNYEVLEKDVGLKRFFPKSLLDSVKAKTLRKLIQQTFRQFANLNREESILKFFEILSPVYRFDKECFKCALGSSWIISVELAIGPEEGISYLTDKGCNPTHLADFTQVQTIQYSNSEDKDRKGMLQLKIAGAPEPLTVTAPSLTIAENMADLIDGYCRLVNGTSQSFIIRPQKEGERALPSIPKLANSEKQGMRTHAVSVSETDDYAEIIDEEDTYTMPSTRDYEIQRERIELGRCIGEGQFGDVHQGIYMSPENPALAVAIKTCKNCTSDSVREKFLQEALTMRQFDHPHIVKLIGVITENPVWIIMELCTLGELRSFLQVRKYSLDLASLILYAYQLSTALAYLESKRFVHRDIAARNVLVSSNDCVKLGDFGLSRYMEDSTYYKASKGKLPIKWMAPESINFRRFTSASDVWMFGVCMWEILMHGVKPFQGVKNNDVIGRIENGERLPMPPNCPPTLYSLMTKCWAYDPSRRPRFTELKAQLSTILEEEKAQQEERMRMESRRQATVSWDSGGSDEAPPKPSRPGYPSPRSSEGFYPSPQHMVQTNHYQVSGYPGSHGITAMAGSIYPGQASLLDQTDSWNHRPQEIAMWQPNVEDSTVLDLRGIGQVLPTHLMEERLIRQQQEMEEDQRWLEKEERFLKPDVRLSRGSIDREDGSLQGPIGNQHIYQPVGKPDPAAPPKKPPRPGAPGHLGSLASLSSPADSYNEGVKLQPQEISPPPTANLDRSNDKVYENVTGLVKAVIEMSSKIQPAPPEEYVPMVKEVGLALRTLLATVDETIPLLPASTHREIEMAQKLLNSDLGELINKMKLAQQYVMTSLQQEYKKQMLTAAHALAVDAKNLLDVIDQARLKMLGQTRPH

MST1R (human) = MST1R (human) (UniProt Q04912)

Chain of SGK2 (human) (Q9HBY8 whole entry, looked up): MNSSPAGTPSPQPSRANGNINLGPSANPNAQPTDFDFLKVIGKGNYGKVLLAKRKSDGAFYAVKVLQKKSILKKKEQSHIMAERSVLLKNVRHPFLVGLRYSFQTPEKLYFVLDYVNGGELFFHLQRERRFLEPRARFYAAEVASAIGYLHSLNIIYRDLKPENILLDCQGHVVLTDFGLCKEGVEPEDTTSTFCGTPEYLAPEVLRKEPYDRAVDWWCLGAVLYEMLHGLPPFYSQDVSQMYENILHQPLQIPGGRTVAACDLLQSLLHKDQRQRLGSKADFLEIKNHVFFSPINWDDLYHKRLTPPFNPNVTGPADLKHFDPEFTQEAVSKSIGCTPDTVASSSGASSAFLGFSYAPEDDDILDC
Chain of SRPK2 (human) (P78362 whole entry, looked up): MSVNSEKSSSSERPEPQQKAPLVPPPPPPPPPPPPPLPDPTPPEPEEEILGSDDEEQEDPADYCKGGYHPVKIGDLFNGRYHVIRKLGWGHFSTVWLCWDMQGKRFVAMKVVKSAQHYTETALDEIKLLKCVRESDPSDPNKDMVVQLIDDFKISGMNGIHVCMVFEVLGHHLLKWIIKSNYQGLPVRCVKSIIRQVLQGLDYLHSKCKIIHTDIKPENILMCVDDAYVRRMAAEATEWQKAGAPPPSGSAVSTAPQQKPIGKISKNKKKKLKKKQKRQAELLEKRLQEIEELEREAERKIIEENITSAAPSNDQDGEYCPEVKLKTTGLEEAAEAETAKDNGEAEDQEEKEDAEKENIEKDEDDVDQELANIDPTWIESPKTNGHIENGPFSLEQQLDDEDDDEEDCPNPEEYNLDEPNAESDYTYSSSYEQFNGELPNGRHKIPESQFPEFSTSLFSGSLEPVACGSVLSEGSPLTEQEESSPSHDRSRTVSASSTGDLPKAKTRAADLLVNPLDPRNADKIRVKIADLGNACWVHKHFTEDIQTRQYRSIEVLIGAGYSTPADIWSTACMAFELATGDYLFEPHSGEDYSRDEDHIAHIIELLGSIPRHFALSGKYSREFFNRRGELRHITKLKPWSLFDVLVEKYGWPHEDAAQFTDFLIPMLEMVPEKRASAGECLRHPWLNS

CC(C)[C@H](CO)Nc1nc(Nc2cccc(Cl)c2)c2ncn(C(C)C)c2n1
residual activity (WNK2 (human)): 92.4%
residual activity (TGFBR1 (human)): 103%
residual activity (SRPK2 (human)): 53.6%
residual activity (GRK5 (human)): 101%
residual activity (PKN1 (human)): 100%
residual activity (SGK2 (human)): 103%
residual activity (MAPK12 (human)): 106%
residual activity (NEK11 (human)): 67.1%
residual activity (MELK (human)): 69.5%
residual activity (CSNK2A1 (human)): 101%
residual activity (NLK (human)): 99.2%
residual activity (DYRK2 (human)): 98.4%
residual activity (TYRO3 (human)): 98.9%
residual activity (MAPK8 (human)): 99%
residual activity (PRKCB2 (human)): 88.6%
residual activity (FGFR2 (human)): 105%
residual activity (MAP3K9 (human)): 37.8%
residual activity (WEE1 (human)): 82.6%
residual activity (MAPK14 (human)): 99.4%
residual activity (CAMK1D (human)): 103%
residual activity (LTK (human)): 100%
residual activity (SIK2 (human)): 92.2%
residual activity (PRKCZ (human)): 102%
residual activity (PAK4 (human)): 99.5%
residual activity (CAMKK1 (human)): 101%
residual activity (TAOK3 (human)): 91.1%
residual activity (PDPK1 (human)): 91.6%
residual activity (LRRK2 (human)): 77.7%
residual activity (CAMK4 (human)): 95.3%
residual activity (YES1 (human)): 21.2%
residual activity (CDK4 CCND1 (human)): 83.4%
residual activity (TEK (human)): 93.8%
residual activity (RPS6KB2 (human)): 101%
residual activity (HCK (human)): 55.6%
residual activity (TSSK1B (human)): 102%
residual activity (NEK2 (human)): 102%
residual activity (SRMS (human)): 104%
residual activity (RPS6KA1 KD1 KD2 (human)): 77.3%
residual activity (MAPK10 (human)): 96.7%
residual activity (CSNK1G2 (human)): 32.4%
residual activity (PTK2 (human)): 85.9%
residual activity (MST1R (human)): 90.6%

Clc1ccc(Nc2nnc(Cc3ccncc3)c3ccccc23)cc1
residual activity (WNK2 (human)): 96.3%
residual activity (TGFBR1 (human)): 96.8%
residual activity (SRPK2 (human)): 96.5%
residual activity (GRK5 (human)): 110%
residual activity (PKN1 (human)): 95.9%
residual activity (SGK2 (human)): 104%
residual activity (MAPK12 (human)): 96.8%
residual activity (NEK11 (human)): 87%
residual activity (MELK (human)): 83.7%
residual activity (CSNK2A1 (human)): 114%
residual activity (NLK (human)): 99.3%
residual activity (DYRK2 (human)): 103%
residual activity (TYRO3 (human)): 98.2%
residual activity (MAPK8 (human)): 98.2%
residual activity (PRKCB2 (human)): 97.2%
residual activity (FGFR2 (human)): 96%
residual activity (MAP3K9 (human)): 113%
residual activity (WEE1 (human)): 109%
residual activity (MAPK14 (human)): 98.2%
residual activity (CAMK1D (human)): 108%
residual activity (LTK (human)): 105%
residual activity (SIK2 (human)): 97.9%
residual activity (PRKCZ (human)): 69.5%
residual activity (PAK4 (human)): 95.8%
residual activity (CAMKK1 (human)): 97.2%
residual activity (TAOK3 (human)): 99.9%
residual activity (PDPK1 (human)): 88.3%
residual activity (LRRK2 (human)): 74.8%
residual activity (CAMK4 (human)): 93.4%
residual activity (YES1 (human)): 93%
residual activity (CDK4 CCND1 (human)): 96.6%
residual activity (TEK (human)): 97.5%
residual activity (RPS6KB2 (human)): 101%
residual activity (HCK (human)): 89.5%
residual activity (TSSK1B (human)): 94.8%
residual activity (NEK2 (human)): 101%
residual activity (SRMS (human)): 91.8%
residual activity (RPS6KA1 KD1 KD2 (human)): 113%
residual activity (MAPK10 (human)): 116%
residual activity (CSNK1G2 (human)): 98.2%
residual activity (PTK2 (human)): 101%
residual activity (MST1R (human)): 91.6%

COc1cc2ncnc(Nc3ccc(F)c(Cl)c3)c2cc1OCCCN1CCOCC1
residual activity (WNK2 (human)): 97.2%
residual activity (TGFBR1 (human)): 99.6%
residual activity (SRPK2 (human)): 99.5%
residual activity (GRK5 (human)): 94.9%
residual activity (PKN1 (human)): 105%
residual activity (SGK2 (human)): 117%
residual activity (MAPK12 (human)): 97.5%
residual activity (NEK11 (human)): 109%
residual activity (MELK (human)): 77.7%
residual activity (CSNK2A1 (human)): 114%
residual activity (NLK (human)): 91.1%
residual activity (DYRK2 (human)): 98.2%
residual activity (TYRO3 (human)): 94.9%
residual activity (MAPK8 (human)): 93.1%
residual activity (PRKCB2 (human)): 100%
residual activity (FGFR2 (human)): 98.7%
residual activity (MAP3K9 (human)): 110%
residual activity (WEE1 (human)): 93.8%
residual activity (MAPK14 (human)): 74.6%
residual activity (CAMK1D (human)): 88.6%
residual activity (LTK (human)): 90.4%
residual activity (SIK2 (human)): 49.3%
residual activity (PRKCZ (human)): 92.5%
residual activity (PAK4 (human)): 90.2%
residual activity (CAMKK1 (human)): 93.8%
residual activity (TAOK3 (human)): 99.5%
residual activity (PDPK1 (human)): 88.2%
residual activity (LRRK2 (human)): 108%
residual activity (CAMK4 (human)): 93.3%
residual activity (YES1 (human)): 74.4%
residual activity (CDK4 CCND1 (human)): 94.3%
residual activity (TEK (human)): 96.2%
residual activity (RPS6KB2 (human)): 101%
residual activity (HCK (human)): 73.3%
residual activity (TSSK1B (human)): 90%
residual activity (NEK2 (human)): 98.4%
residual activity (SRMS (human)): 96.4%
residual activity (RPS6KA1 KD1 KD2 (human)): 97.3%
residual activity (MAPK10 (human)): 102%
residual activity (CSNK1G2 (human)): 98.1%
residual activity (PTK2 (human)): 103%
residual activity (MST1R (human)): 97.7%

COc1cc2nccc(Oc3ccc(NC(=S)NC(=O)c4ccccc4C)cc3)c2cc1OC
residual activity (WNK2 (human)): 94.1%
residual activity (TGFBR1 (human)): 98%
residual activity (SRPK2 (human)): 93.4%
residual activity (GRK5 (human)): 98.8%
residual activity (PKN1 (human)): 99.2%
residual activity (SGK2 (human)): 97.3%
residual activity (MAPK12 (human)): 96.8%
residual activity (NEK11 (human)): 96.7%
residual activity (MELK (human)): 98.5%
residual activity (CSNK2A1 (human)): 98.9%
residual activity (NLK (human)): 100%
residual activity (DYRK2 (human)): 87.5%
residual activity (TYRO3 (human)): 92.2%
residual activity (MAPK8 (human)): 81.3%
residual activity (PRKCB2 (human)): 102%
residual activity (FGFR2 (human)): 89%
residual activity (MAP3K9 (human)): 99.3%
residual activity (WEE1 (human)): 89.6%
residual activity (MAPK14 (human)): 80.2%
residual activity (CAMK1D (human)): 72.5%
residual activity (LTK (human)): 86.1%
residual activity (SIK2 (human)): 97.8%
residual activity (PRKCZ (human)): 96.9%
residual activity (PAK4 (human)): 100%
residual activity (CAMKK1 (human)): 91.2%
residual activity (TAOK3 (human)): 87.9%
residual activity (PDPK1 (human)): 105%
residual activity (LRRK2 (human)): 94.4%
residual activity (CAMK4 (human)): 103%
residual activity (YES1 (human)): 23.8%
residual activity (CDK4 CCND1 (human)): 95.1%
residual activity (TEK (human)): 90.1%
residual activity (RPS6KB2 (human)): 97.3%
residual activity (HCK (human)): 4.93%
residual activity (TSSK1B (human)): 83.6%
residual activity (NEK2 (human)): 89%
residual activity (SRMS (human)): 111%
residual activity (RPS6KA1 KD1 KD2 (human)): 97.3%
residual activity (MAPK10 (human)): 98.7%
residual activity (CSNK1G2 (human)): 106%
residual activity (PTK2 (human)): 90.7%
residual activity (MST1R (human)): 88.8%
